Legend:
Format in all cases: in vivo, C57BL/6J mice
[1] = system: iron-induced retinal autofluorescence and degeneration; test: Iron-induced retinal autofluorescence and degeneration, cSLO and OCT imaging 1 week after intravitreal iron
Procedure: To evaluate the protective effect of 0.25% D-DHA diet, confocal scanning laser ophthalmoscopy (cSLO) and optical coherence tomography (OCT) were employed for in vivo imaging at 1 week after injections. For the cSLO imaging, both blue autofluorescence (BAF) and near-infra autofluorescence (IRAF) were performed.
Adult male wild-type C57BL/6J mice (Stock No.000664, Jackson Labs, Bar Harbor, ME, USA) were housed in standard conditions under cyclic light (12 h:12 h light-dark cycle). Mice had ad libitum access to water and food. Beginning at 2 mo of age, mice were placed on the AIN93G diet described above, supplemented with 0.25% D-DHA or DHA (control diet) for 1 week, 2 weeks, 3 weeks, or 4 weeks prior to the intravitreal injection. Mice were given an intravitreal injection of 1 µl 0.5 mM ferric ammonium citrate diluted in 0.9% NaCl (saline) (MP Biomedicals LLC, Santa Ana, CA) or
1 µl of saline as control. Intravitreal injections were performed as previously described ^54. Mice were continued on respective diet until their final evaluation. All housing and procedures were performed according to the NIH Guide for the Care and Use of Experimental Animals and approved by the University of Pennsylvania Animal Care and Use Committee.
Mice were given general anesthesia and placed on a platform. Pupils were dilated with 1% tropicamide saline solution (Akorn, Inc., Lake Forest, IL). Optical coherence tomography (OCT) imaging was performed for visualization of the retinal structure by using a Bioptigen
Envisu (R2200, Bioptigen Inc., Durham, NC, USA) coupled to a broadband LED light source (T870-HP, Superlum Diodes, Ltd, Ireland). Confocal scanning laser ophthalmoscopy (cSLO) (Spectralis HRA, Heidelberg Engineering, Franklin, MA, USA) was used for visualization of retinal AF using BluePeak™ or simply blue AF (488 nm excitation) and near-infrared AF (787 nm excitation) imaging modes.

[2] = system: neural retina mRNA levels; test: Quantitative PCR of mRNA changes in the neural retina; conditions: 1 week after injection
Procedure: Quantitative PCR was used to evaluate mRNA changes in the neural retinas of mice fed with D-DHA or DHA for 4 weeks. Cell-type specific, iron regulating, antioxidant, and inflammation related genes were evaluated at 1 week after iron or saline injections. The mRNA levels of the rod-specific gene rhodopsin (Rho), cone-specific gene cone opsin1 medium wave sensitive and short wave sensitive (Opn1mw and Opn1sw) were measured to assess the stress and differentiation of rod and cone photoreceptors. […] In contrast, there was no change in these mRNAs in the neural retinas of D-DHA/IVT iron mice relative to IVT saline controls (FIG. 9). The mRNA levels of transferrin receptor (Tfrc) which are inversely related to intracellular iron levels, can be used as an indicator of intracellular iron levels. […] These two groups had slightly different Tfrc levels, perhaps as a result of loss of some photoreceptors in the DHA/IVT iron group (FIG. 9). The mRNA levels of antioxidants solute carrier family 7 member 11 (SLC7A11), glutathione peroxidase 4 (GPX4), glutathione S-transferase isoform m1(GSTm1), glutathione synthesis (GSS), catalase (Cat), heme oxygenase 1 (Hmox1), and superoxide dismutase 1 (Sod1) were measured to investigate oxidative stress. […] The mRNA levels of IL1β, IL6 and cluster of differentiation 68 (Cd68) were detected to investigate the retinal inflammation. […] The mRNA levels of Glutathione-synthase (GSS) and IL6 were not increased by IVT iron in mice on either diet (FIG. 9).
Neural retina tissues were isolated as previously described (e.g., M Hadziahmetovic et al. Age-dependent retinal iron accumulation and degeneration in hepcidin knockout mice. Investigative ophthalmology & visual science. Jan. 5, 2011;52(1):109-18).Gene expression changes in the neural retina and purified RPE cells were evaluated. Gapdh was used as an endogenous control. […]

[3] = system: carboxyethyl pyrrole (CEP); test: Immunolabelling for CEP on cryosections; conditions: 1 week after injection, 4 weeks diet
Procedure: Iron-catalyzed peroxidation of phospholipids containing DHA leads to unique carboxyethyl pyrrole (CEP) adducts not formed from any other PUFA. CEP has been detected by IHC in human AMD eyes and mouse retinas, including those from mice receiving IVT iron. To test whether D-DHA could protect against iron-induced CEP formation, mice were fed with D-DHA or DHA for 4 weeks prior to IVT injection of iron or control saline.
Cryosections were prepared at 4h and 1 week after injections. Co-labelling for CEP and rhodopsin was conducted to assess and localize CEP. […] At 1 week after injection, immunolabelling for CEP localized to RPE and infiltrating myeloid cells in IVT iron injected eyes of DHA fed mice, likely originationg from phagocytosed oxidized photoreceptor outer segments (FIG. 8B). Immunolabelling for CEP was undetected in D-DHA fed mice. […] Quantification of pixel density for CEP and L-Ft label was conducted using ImageJ software (FIGS. 8F and 8G), and quantitatively verified the results described above.
Immunofluorescence on cryosections was conducted as described previously. […] Images were acquired with an epifluorescence microscope (Nikon 80i microscope, Nikon, Tokyo, Japan), and analyzed using NIS-Elements (Nikon).

Structure (SMILES): [2H]C([2H])(/C=C\CC)/C=C\C([2H])([2H])/C=C\C([2H])([2H])/C=C\C([2H])([2H])/C=C\C([2H])([2H])/C=C\CCC(=O)OCC [D-DHA, 6,6,9,9,12,12,15,15,18,18-D10-(4Z,7Z,10Z,13Z,16Z, 19Z)-docosa 4,7,10,13,16, 19-hexaenoic acid ethyl ester]
- iron induced retinal AF (BAF and IRAF cSLO images) ([1]; 0.25% D-DHA diet for 1, 2, 3 and 4 weeks before iron injection, 1 week after injection): dose-dependent reduction
- protective effects (reduction of AF area) ([1]; at >30% retinal D-DHA substitution levels): > 50%
- retinal structure in OCT scans ([1]; fed D-DHA for 4 weeks, 1 week after iron injection): complete protection
- protection against iron-induced retinal damage ([1]; fed D-DHA for 4 weeks, >50% substitution in neural retina): nearly complete protection
- upregulation of antioxidants mRNA (Slc7a11, Gpx4, GSTm1, Cat, Hmox1, Sod1) ([2]; D-DHA/IVT iron eyes): prevented
- mRNA levels of Rho, Opn1sw (photoreceptor genes) ([2]; D-DHA/IVT iron relative to IVT saline controls): no change
- mRNA levels of IL1β and Cd68 ([2]; D-DHA/IVT iron retinas): not increased
- immunolabelling for CEP [3]: undetected

From patent US20230333087A1, “METHODS FOR MONITORING PATIENT RESPONSE TO TREATMENT OF RETINAL OXIDATIVE DISEASES” (BioJiva LLC, priority 2022, published 2023)
